Active and inactive are the calls of the source. The rule behind the calls is not given here.
Tested on: CCRIS mutagenicity, Ames/micronucleus/aberration tests
Assay: CCRIS mutagenicity studies
Details: Test System: AMES SALMONELLA TYPHIMURIUM

Measured: mutagenic call

C=CC(=O)O
inactive: Strain/Indicator: TA97, Metabolic Activation: NONE, Method: PREINCUBATION inactive; negative | Strain/Indicator: TA97, Metabolic Activation: S-9, Method: PREINCUBATION inactive; negative | Strain/Indicator: TA98, Metabolic Activation: HAMSTER, LIVER, S-9, AROCLOR 1254 (10%), Method: PREINCUBATION inactive; negative | Strain/Indicator: TA98, Metabolic Activation: HAMSTER, LIVER, S-9, AROCLOR 1254, Method: STANDARD PLATE inactive; negative | Strain/Indicator: TA98, Metabolic Activation: NONE, Method: PREINCUBATION inactive; negative | Strain/Indicator: TA98, Metabolic Activation: NONE, Method: STANDARD PLATE inactive; negative | Strain/Indicator: TA98, Metabolic Activation: RAT LIVER S-9, PHENOBARBITAL AND BETA-NAPHTHOFLAVONE, Method: PREINCUBATION inactive; negative | Strain/Indicator: TA98, Metabolic Activation: RAT, LIVER, S-9, AROCLOR 1254 (10%), Method: PREINCUBATION inactive; negative | Strain/Indicator: TA98, Metabolic Activation: RAT, LIVER, S-9, AROCLOR 1254, Method: STANDARD PLATE inactive; negative | Strain/Indicator: TA98, Metabolic Activation: RAT, LIVER, S-9, AROCLOR, Method: STANDARD PLATE inactive; negative | Strain/Indicator: TA100, Metabolic Activation: HAMSTER, LIVER, S-9, AROCLOR 1254 (10%), Method: PREINCUBATION inactive; negative | Strain/Indicator: TA100, Metabolic Activation: HAMSTER, LIVER, S-9, AROCLOR 1254, Method: STANDARD PLATE inactive; negative | Strain/Indicator: TA100, Metabolic Activation: NONE, Method: PREINCUBATION inactive; negative | Strain/Indicator: TA100, Metabolic Activation: NONE, Method: STANDARD PLATE inactive; negative | Strain/Indicator: TA100, Metabolic Activation: RAT LIVER S-9, PHENOBARBITAL AND BETA-NAPHTHOFLAVONE, Method: PREINCUBATION inactive; negative | Strain/Indicator: TA100, Metabolic Activation: RAT, LIVER, S-9, AROCLOR 1254 (10%), Method: PREINCUBATION inactive; negative | Strain/Indicator: TA100, Metabolic Activation: RAT, LIVER, S-9, AROCLOR 1254, Method: STANDARD PLATE inactive; negative | Strain/Indicator: TA100, Metabolic Activation: RAT, LIVER, S-9, AROCLOR, Method: STANDARD PLATE inactive; negative | Strain/Indicator: TA102, Metabolic Activation: NONE, Method: PREINCUBATION inactive; negative | Strain/Indicator: TA102, Metabolic Activation: RAT LIVER S-9, PHENOBARBITAL AND BETA-NAPHTHOFLAVONE, Method: PREINCUBATION inactive; negative | Strain/Indicator: TA102, Metabolic Activation: S-9, Method: PREINCUBATION inactive; negative | Strain/Indicator: TA104, Metabolic Activation: NONE, Method: PREINCUBATION inactive; negative | Strain/Indicator: TA104, Metabolic Activation: RAT LIVER S-9, PHENOBARBITAL AND BETA-NAPHTHOFLAVONE, Method: PREINCUBATION inactive; negative | Strain/Indicator: TA1535, Metabolic Activation: HAMSTER, LIVER, S-9, AROCLOR 1254 (10%), Method: PREINCUBATION inactive; negative | Strain/Indicator: TA1535, Metabolic Activation: HAMSTER, LIVER, S-9, AROCLOR 1254, Method: STANDARD PLATE inactive; negative | Strain/Indicator: TA1535, Metabolic Activation: NONE, Method: PREINCUBATION inactive; negative | Strain/Indicator: TA1535, Metabolic Activation: NONE, Method: STANDARD PLATE inactive; negative

Source: PubChem BioAssay AID1259407 (Chemical Carcinogenesis Research Information System (CCRIS), 2018)
